{"source": "patent US8609173B2", "about": "“Compositions comprising sweetness enhancers and methods of making them” (Senomyx Inc., priority 2008, dated 2013)", "key": {"[1]": {"test_system": "Panelists", "test": "Paired comparison taste test, Example 7, sucrose or fructose solutions", "format": "in vivo, Human", "details": "1% Sucrose chosen, vs 28 μM (9.9 ppm) compound; n = 32", "experimental": "(§1) Several types of sensory tests were used to determine the efficacy of 3-(4-amino-2,2-dioxide-1H-benzo[c][1,2,6]thiadiazin-5-yloxy)-2′,2′-dimethyl-N-propylpropanamide 3-(4-amino-2,2-dioxide-1H-benzo[c][1,2,6]thiadiazin-5-yloxy)-2′,2′-dimethyl-N-propylpropanamide in enhancing the sweetness of sucrose. Two types of tests were conducted: • 1) Sensory scaling tests were performed using a 15-point percent sucrose equivalence scale for sweetness in order to evaluate sweetness enhancement 3-(4-amino-2,2-dioxide-1H-benzo[c][1,2,6]thiadiazin-5-yloxy)-2′,2′-dimethyl-N-propylpropanamide 3-(4-amino-2,2-dioxide-1H-benzo[c][1,2,6]thiadiazin-5-yloxy)-2′,2′-dimethyl-N-propylpropanamide in sucrose or in fructose. • 2) Paired comparison tests (2-alternative forced choice difference tests) were used to determine sweetness equivalence for solutions of sucrose vs. 3-(4-amino-2,2-dioxide-1H-benzo[c][1,2,6]thiadiazin-5-yloxy)-2′,2′-dimethyl-N-propylpropanamide 3-(4-amino-2,2-dioxide-1H-benzo[c][1,2,6]thiadiazin-5-yloxy)-2′,2′-dimethyl-N-propylpropanamide or buffer vs. 3-(4-amino-2,2-dioxide-1H-benzo[c][1,2,6]thiadiazin-5-yloxy)-2′,2′-dimethyl-N-propylpropanamide 3-(4-amino-2,2-dioxide-1H-benzo[c][1,2,6]thiadiazin-5-yloxy)-2′,2′-dimethyl-N-propylpropanamide. Stimuli:\nPanelists evaluated two solutions in a paired comparison taste test procedure. They were instructed to select the sweeter of the two samples. They were also asked to comment on how difficult it was to tell the difference in sweetness between both samples and if any off tastes were perceived.\nPanelists evaluated two solutions in a paired comparison taste test procedure and were instructed to select the sweeter of the two samples."}, "[2]": {"test_system": "External panelists", "test": "Line scale (15-point sucrose equivalence) sensory test, Example 5, sucrose or LSB, pH 7.1", "format": "in vivo, Human", "experimental": "as §1\nTests were performed with sucrose or fructose. The sweetener was evaluated with and/or without 3-(4-amino-2,2-dioxide-1H-benzo[c][1,2,6]thiadiazin-5-yloxy)-2′,2′-dimethyl-N-propylpropanamide 3-(4-amino-2,2-dioxide-1H-benzo[c][1,2,6]thiadiazin-5-yloxy)-2′,2′-dimethyl-N-propylpropanamide at the appropriate concentration(s).\n3-(4-amino-2,2-dioxide-1H-benzo[c][1,2,6]thiadiazin-5-yloxy)-2′,2′-dimethyl-N-propylpropanamide was prepared as a concentrated stock solution in ethanol to ensure dissolution of the 3-(4-amino-2,2-dioxide-1H-benzo[c][1,2,6]thiadiazin-5-yloxy)-2′,2′-dimethyl-N-propylpropanamide. Therefore, all taste solutions contained ethanol in the final solution. Samples without 3-(4-amino-2,2-dioxide-1H-benzo[c][1,2,6]thiadiazin-5-yloxy)-2′,2′-dimethyl-N-propylpropanamide also contained an equivalent concentration of ethanol. For samples involving 3-(4-amino-2,2-dioxide-1H-benzo[c][1,2,6]thiadiazin-5-yloxy)-2′,2′-dimethyl-N-propylpropanamide at 5-10 ppm (up to 28 μM), the final concentration of ethanol was 0.2%; 30-40 μM, 0.4% ethanol; 50 μM, 0.5% ethanol; and 100 μM, 1% ethanol.\nTaste samples were also prepared in low sodium phosphate buffer (pH 7.1; “LSB”) lacking sucrose to evaluate the taste of 3-(4-amino-2,2-dioxide-1H-benzo[c][1,2,6]thiadiazin-5-yloxy)-2′,2′-dimethyl-N-propylpropanamide alone. Low sodium phosphate buffer consists of 0.3 mM KCl, 0.5 mM Na2HPO4, and 0.175 mM KH2PO4.\nIn scaling test situations, the samples were rated on a 15-point scale for sweetness, ranging from 0=0% sucrose to 15=15% sucrose. To evaluate attributes other than sweetness, references are used for training and are prepared according to the table below. Note that each reference was given a score of 5 on the 15-point scale.\nExternal panelists were used for the tests. The exact number of panelists is reported with test results. Subjects were instructed not to eat or drink anything (except water) for at least 1 hour prior to the test.\nPanelists rinsed their mouths with water prior to starting any test. Samples were presented to panelists in a randomized, counterbalanced order. Panelists rinsed with water and had up to a 1 minute delay to clear the mouth of any tastes after each evaluation. Two replicates of each test were performed, unless otherwise noted.\nIn scaling tests, panelists rate samples monadically for the attributes listed above (see Stimuli). In paired comparison tests, panelists taste pairs of solutions and indicate which sample is perceived to be sweeter.\nAttributes of interest are reported for each scaling taste test.\nPanelists rinsed their mouths with water prior to starting any test. Samples were presented to panelists in a randomized, counterbalanced order. […]"}}}
{"smiles": "OC[C@H]1O[C@@](CO)(O[C@H]2O[C@H](CO)[C@@H](O)[C@H](O)[C@H]2O)[C@@H](O)[C@@H]1O", "note": "[Sucrose, sucrose]", "values": [{"measurement": "Sample selected as more sweet by panelists, Total", "setting": "[1]", "value": 28}, {"measurement": "Average Sweetness", "setting": "[2]; 1% Sucrose, Table 25, n = 30", "value": 1.2}, {"measurement": "Average Bitterness", "setting": "[2]; 1% Sucrose, Table 26, n = 30", "value": 0.4}, {"measurement": "Average Sweetness", "setting": "[2]; 2% Sucrose, Table 20, n = 30", "value": 2.3}, {"measurement": "Average Bitterness", "setting": "[2]; 2% Sucrose, Table 21, n = 30", "value": 0.3}, {"measurement": "Average Sweetness", "setting": "[2]; 2% Sucrose, Table 22, n = 14", "value": 2.3}, {"measurement": "Average Sweetness", "setting": "[2]; 2% Sucrose, Table 25, n = 30", "value": 2.2}, {"measurement": "Average Bitterness", "setting": "[2]; 2% Sucrose, Table 26, n = 30", "value": 0.3}, {"measurement": "Average Sweetness", "setting": "[2]; 2% Sucrose, Table 27, n = 28", "value": 2.0}, {"measurement": "Average Bitterness", "setting": "[2]; 2% Sucrose, Table 28, n = 28", "value": 0.1}, {"measurement": "Average Sweetness", "setting": "[2]; 4% Sucrose, Table 20, n = 30", "value": 4.2}, {"measurement": "Average Bitterness", "setting": "[2]; 4% Sucrose, Table 21, n = 30", "value": 0.2}, {"measurement": "Average Sweetness", "setting": "[2]; 4% Sucrose, Table 22, n = 14", "value": 4.3}, {"measurement": "Average Sweetness", "setting": "[2]; 4% Sucrose, Table 25, n = 30", "value": 4.4}, {"measurement": "Average Bitterness", "setting": "[2]; 4% Sucrose, Table 26, n = 30", "value": 0.3}, {"measurement": "Average Sweetness", "setting": "[2]; 4% Sucrose, Table 27, n = 28", "value": 4.2}, {"measurement": "Average Bitterness", "setting": "[2]; 4% Sucrose, Table 28, n = 28", "value": 0.1}, {"measurement": "Average Sweetness", "setting": "[2]; 6% Sucrose, Table 16, n = 15", "value": 6.3}, {"measurement": "Average Bitterness", "setting": "[2]; 6% Sucrose, Table 17, n = 15", "value": 0.3}, {"measurement": "Average Sweetness", "setting": "[2]; 6% Sucrose, Table 18, n = 24", "value": 6.2}, {"measurement": "Average Bitterness", "setting": "[2]; 6% Sucrose, Table 19, n = 24", "value": 0.2}, {"measurement": "Average Sweetness", "setting": "[2]; 6% Sucrose, Table 20, n = 30", "value": 5.8}, {"measurement": "Average Bitterness", "setting": "[2]; 6% Sucrose, Table 21, n = 30", "value": 0.2}, {"measurement": "Average Sweetness", "setting": "[2]; 6% Sucrose, Table 22, n = 14", "value": 5.7}, {"measurement": "Average Sweetness", "setting": "[2]; 6% Sucrose, Table 23, n = 30", "value": 6.7}, {"measurement": "Average Bitterness", "setting": "[2]; 6% Sucrose, Table 24, n = 30", "value": 0.4}, {"measurement": "Average Sweetness", "setting": "[2]; 6% Sucrose, Table 25, n = 30", "value": 6.4}, {"measurement": "Average Bitterness", "setting": "[2]; 6% Sucrose, Table 26, n = 30", "value": 0.6}, {"measurement": "Average Sweetness", "setting": "[2]; 6% Sucrose, Table 27, n = 28", "value": 6.1}, {"measurement": "Average Bitterness", "setting": "[2]; 6% Sucrose, Table 28, n = 28", "value": 0.1}, {"measurement": "Average Sweetness", "setting": "[2]; 8% Sucrose, Table 16, n = 15", "value": 7.7}, {"measurement": "Average Bitterness", "setting": "[2]; 8% Sucrose, Table 17, n = 15", "value": 0.1}, {"measurement": "Average Sweetness", "setting": "[2]; 8% Sucrose, Table 18, n = 24", "value": 8.3}, {"measurement": "Average Bitterness", "setting": "[2]; 8% Sucrose, Table 19, n = 24", "value": 0.1}, {"measurement": "Average Sweetness", "setting": "[2]; 8% Sucrose, Table 23, n = 30", "value": 8.3}, {"measurement": "Average Bitterness", "setting": "[2]; 8% Sucrose, Table 24, n = 30", "value": 0.4}, {"measurement": "Average Sweetness", "setting": "[2]; 8% Sucrose, Table 25, n = 30", "value": 8.7}, {"measurement": "Average Bitterness", "setting": "[2]; 8% Sucrose, Table 26, n = 30", "value": 0.3}, {"measurement": "Average Sweetness", "setting": "[2]; 8% Sucrose, Table 27, n = 28", "value": 8.4}, {"measurement": "Average Bitterness", "setting": "[2]; 8% Sucrose, Table 28, n = 28", "value": 0.2}, {"measurement": "Average Sweetness", "setting": "[2]; 9% Sucrose, Table 16, n = 15", "value": 9.0}, {"measurement": "Average Bitterness", "setting": "[2]; 9% Sucrose, Table 17, n = 15", "value": 0.1}, {"measurement": "Average Sweetness", "setting": "[2]; 9% Sucrose, Table 18, n = 24", "value": 9.3}, {"measurement": "Average Bitterness", "setting": "[2]; 9% Sucrose, Table 19, n = 24", "value": 0.1}, {"measurement": "Average Sweetness", "setting": "[2]; 10% Sucrose, Table 16, n = 15", "value": 9.2}, {"measurement": "Average Bitterness", "setting": "[2]; 10% Sucrose, Table 17, n = 15", "value": 0.2}, {"measurement": "Average Sweetness", "setting": "[2]; 10% Sucrose, Table 18, n = 24", "value": 9.8}, {"measurement": "Average Bitterness", "setting": "[2]; 10% Sucrose, Table 19, n = 24", "value": 0.1}, {"measurement": "Average Sweetness", "setting": "[2]; 10% Sucrose, Table 23, n = 30", "value": 10.3}, {"measurement": "Average Bitterness", "setting": "[2]; 10% Sucrose, Table 24, n = 30", "value": 0.2}, {"measurement": "Average Sweetness", "setting": "[2]; 10% Sucrose, Table 25, n = 30", "value": 10.5}, {"measurement": "Average Bitterness", "setting": "[2]; 10% Sucrose, Table 26, n = 30", "value": 0.3}, {"measurement": "Average Sweetness", "setting": "[2]; 10% Sucrose, Table 27, n = 28", "value": 9.6}, {"measurement": "Average Bitterness", "setting": "[2]; 10% Sucrose, Table 28, n = 28", "value": 0.1}, {"measurement": "Average Sweetness", "setting": "[2]; 12% Sucrose, Table 18, n = 24", "value": 11.1}, {"measurement": "Average Bitterness", "setting": "[2]; 12% Sucrose, Table 19, n = 24", "value": 0.0}, {"measurement": "Average Sweetness", "setting": "[2]; 12% Sucrose, Table 23, n = 30", "value": 11.2}, {"measurement": "Average Bitterness", "setting": "[2]; 12% Sucrose, Table 24, n = 30", "value": 0.3}]}
